From patent US20110281289A1, “QUANTIFICATION OF ENZYME ACTIVITY BY MASS SPECTROMETRY USING IMMOBILIZED SUBSTRATES” (LUDWIG INSTITUTE FOR CANCER RESEARCH LTD., priority 2008, published 2011)

Tests used:
Type in all cases: cell-based
PI3K [1] = assay: Peptide kinase assay using the Aktide peptide (protocols of WO 07/127,767) with P31-Fuji total cell lysates; conditions: P31-Fuji cells treated with LY294002 before lysis, vs control
From the text: Data from a peptide kinase assay using the Aktide peptide (a peptide substrate with sequence RPRAATF—SEQ ID NO: 24—known to provide a readout of PI3K pathway activation) was compared with the data from a multiplex kinase assay using full length protein substrates. For this, P31-Fuji cells (an acute myeloid leukaemia cell line) were lysed and the kinase activity in total cell lysates measured using the protocols disclosed in WO 07/127,767 or using the protocols disclosed herein. Before lysis, cells were divided into two groups—(1) control and (2) treated with LY294002 (an inhibitor of PI3K which controls downstream protein kinases that phosphorylate the Aktide).

PI3K [2] = assay: Multiplex kinase assay on immobilized full length protein substrates (pool 1, pool 2) with lysates of P31-Fuj AML cells, LC-MS readout; design: relative kinase activity (normalized to mean of control and treated, log 2 converted), phosphopeptide SMAD-1 RVESPVLPPVLVPR SEQ ID NO: 5: dose or concentration left out as unconfirmed
Protocol: P31-Fuj AML cells were seeded at a density of 500000 cells/mL. […] Cells were washed twice in ice cold PBS containing 100 mM NaVO3 and 1 mM NaF and were subsequently harvested and lysed in the following lysis buffer: 40 mM Hepes pH 7.5, 120 mM NaCl, 1 mM EDTA, 10 mM pyrophosphate, 10 mM glycerophosphate, 50 mM NaF, 0.5 mM orthovanadate, 0.3% CHAPS, and complete protease inhibitors (Roche). […] After allowing the reactions to occur in the presence of ATP and Mg^2+, samples were trypsin digested and subject to LC-MS analysis. […] Data from a peptide kinase assay using the Aktide peptide (a peptide substrate with sequence RPRAATF—SEQ ID NO: 24—known to provide a readout of PI3K pathway activation) was compared with the data from a multiplex kinase assay using full length protein substrates.

PI3K signalling activity = assay: Kinase reaction on immobilized BAD with lysates of serum-stimulated NIH-3T3 cells pre-treated or not with inhibitors, LC-MS readout; conditions: starved NIH-3T3 cells pre-treated with inhibitor, 10% fetal calf serum 5 minutes before lysis
Protocol: Starved NIH-3T3 cells, pre-treated or not with the inhibitors Wortmannin (WM) or PD98059 (PD), were stimulated with 10% fetal calf serum for 5 minutes prior to cell lysis. Cell lysates were mixed with immobilized BAD and ATP/Mg^2+ and reactions allowed to occur at 37° C. for the indicated times. Reactions were stopped and beads washed to remove lysate components and to buffer exchange to 50 mM ammonium bicarbonate. Immobilized phosphorylated BAD was digested with trypsin and resultant peptides analysed by LC-MS and LC-MS/MS.
Mass spectrometry was used to multiplex the measurement of protein kinase activities, using BAD as a substrate for in vitro reactions. BAD is a known substrate of the protein kinase AKT/PKB, which is downstream of PI3K and upstream mTORC1. Mouse His-Tag-BAD protein was immobilized to SEPHAROSE® beads. In subsequent experiments, human proteins were synthesised with N-terminal GST and His tags separated by a PreScission protease cleavage site. Purification was performed with glutathione S-sepharose chromatography. […] These immobilized proteins were used as substrates for kinase reactions using total cell lysates as an enzyme source.
Starved NIH-3T3 cells, pre-treated or not with the inhibitors WM or PD, were stimulated with 10% fetal calf serum for 5 minutes prior to cell lysis. Cell lysates were mixed with immobilized BAD and ATP/Mg^2+ and reactions allowed to occur at 37° C. for the times indicated in FIG. 3. Reactions were stopped, and the beads washed three times to remove lysate components and to buffer exchange to 50 mM ammonium bicarbonate. For each wash, beads were isolated from the reaction by magnetic separation using a magnet. Immobilised phosphorylated BAD was digested with trypsin and resultant peptides analysed by LC-MS and LC-MS/MS. […] These observed activities increased when serum was added to the medium prior to lysis and were sensitive to the addition of wortmannin (WM) but not the MEK inhibitor PD98059 (PD), thus arguing that these activities are a measure of WM target inhibition, probably PI3K signalling activity, a known target of WM, and are probably downstream PI3K.

[3] = Pool 1, P31-Fuj AML cells, 10 mM LY204002 for 1 hr
[4] = Pool 2, P31-Fuj AML cells, 10 mM LY204002 for 1 hr
[5] = full length protein substrate, P31-Fuji cells treated with LY294002 before lysis, vs control

SMILES: O=c1cc(N2CCOCC2)oc2c(-c3ccccc3)cccc12 [Ly294002, LY294002]
- reduction on the kinase activity towards the Aktide (PI3K [1]): about 85%
- relative kinase activity (normalized, log 2), phosphopeptide Annexin MYGISLCQAILDETKGDYEK SEQ ID NO: 11 (PI3K [2]; [3]): 0.429
- relative kinase activity (normalized, log 2), phosphopeptide Beta Catenin AAVSHWQQQSYLDSGIHSGATTTAPSLSGK SEQ ID NO: 12 (PI3K [2]; [3]): −1.337
- relative kinase activity (normalized, log 2), phosphopeptide Beta Catenin TSMGGTQQQFVEGVR SEQ ID NO: 13 (PI3K [2]; [3]): −0.5836
- relative kinase activity (normalized, log 2), phosphopeptide SMAD-1 HSEYNPQHSLLAQFR SEQ ID NO: 6 (PI3K [2]; [3]): −2.2905
- relative kinase activity (normalized, log 2), phosphopeptide myc CHVSTHQHNYAAPPSTR SEQ ID NO: 7 (PI3K [2]; [3]): 0.1282
- relative kinase activity (normalized, log 2), phosphopeptide myc FELLPTPPLSPSR SEQ ID NO: 8 (PI3K [2]; [3]): 0.1492
- relative kinase activity (normalized, log 2), phosphopeptide myc FELLPTPPLSPSRR SEQ ID NO: 9 (PI3K [2]; [3]): −0.0685
- relative kinase activity (normalized, log 2), phosphopeptide myc VKLDSVR SEQ ID NO: 10 (PI3K [2]; [3]): -0.3467
- relative kinase activity (normalized to mean of control and treated, log 2 converted), phosphopeptide SMAD-1 RVESPVLPPVLVPR SEQ ID NO: 5 (PI3K [2]; Pool 1, P31-Fuj AML cells, LY204002 for 1 hr): −0.6559
- relative kinase activity (normalized, log 2), phosphopeptide 4ebp1 TPPRDLPTIPGVTSPSSDEPPMEASQSHLR SEQ ID NO: 19 (PI3K [2]; [4]): −4.332
- relative kinase activity (normalized, log 2), phosphopeptide S6 DIPGLTDTTVPR SEQ ID NO: 14 (PI3K [2]; [4]): −0.573
- relative kinase activity (normalized, log 2), phosphopeptide S6 DIPGLTDTTVPRR SEQ ID NO: 15 (PI3K [2]; [4]): 0.007685
- relative kinase activity (normalized, log 2), phosphopeptide foxo AVSMDNSNKYTK SEQ ID NO: 18 (PI3K [2]; [4]): −0.6542
- relative kinase activity (normalized, log 2), phosphopeptide foxo HNLSLHSR SEQ ID NO: 17 (PI3K [2]; [4]): −0.1853
- relative kinase activity (normalized, log 2), phosphopeptide foxo WPGSPTSR SEQ ID NO: 16 (PI3K [2]; [4]): −0.6519
- relative kinase activity (normalized, log 2), phosphopeptide p53 ALPNNTSSSPQPK SEQ ID NO: 21 (PI3K [2]; [4]): −5.826
- relative kinase activity (normalized, log 2), phosphopeptide p53 CSDSDGLAPPQHLIR SEQ ID NO: 22 (PI3K [2]; [4]): −3.078
- relative kinase activity (normalized, log 2), phosphopeptide p53 RALPNNTSSSPQPK SEQ ID NO: 23 (PI3K [2]; [4]): −1.587
- relative kinase activity (normalized, log 2), phosphopeptide p53 SVTCTYSPALNK SEQ ID NO: 20 (PI3K [2]; [4]): −2.051
- reduction of kinase activity towards Ser94 on the substrate 4EBP1 (PI3K [2]; [5]): 95%
- reduction of kinase activity towards Ser121 on the substrate p53 (PI3K [2]; [5]): 99%

SMILES: COc1cccc(-c2cc(=O)c3ccccc3o2)c1N [PD98059]
- kinase activity towards BAD pS136 (SEQ ID NO: 4) (PI3K signalling activity): not sensitive
- kinase activity towards BAD pS170 (SEQ ID NO: 3) (PI3K signalling activity): not sensitive
- kinase activity towards BAD pS136 (SEQ ID NO: 4) (PI3K signalling activity; listed as PD): sensitive to the addition of WM but not PD
- kinase activity towards BAD pS170 (SEQ ID NO: 3) (PI3K signalling activity; listed as PD): sensitive to the addition of WM but not PD
